Our source for the remaining activity values is publication PMC5564600 (Oncotarget, 2017).

Common to all, as to assay: biochemical
Holding throughout (assay type): binding

Experiment [1] deals with T1, panel of 442 kinases (Homo sapiens, UniProt O75116).
T1 construct: purchased Ambit Biosciences (scanMAXX KINOMEscan)
The conditions noted are these: kinase ROCK2; for remaining activity at 1 µM: read-out: ROCK2 (% of control at 1 µM).

Experiment [2] concerns the target T2, panel of 442 kinases (Homo sapiens, UniProt O95747).
T2 construct: purchased Ambit Biosciences (scanMAXX KINOMEscan)
The settings on record: kinase OSR1; for remaining activity at 1 µM: read-out: % of control at 1 µM.

In experiment [3] the target is T3, panel of 442 kinases (Homo sapiens, UniProt P22607).
T3 construct: purchased Ambit Biosciences (scanMAXX KINOMEscan)
The conditions noted are these: FGFR3; for remaining activity at 1 µM: read-out: % of control at 1 µM.

For experiment [4], the target named is T4, panel of 442 kinases (Homo sapiens, UniProt P35590).
T4 construct: purchased Ambit Biosciences (scanMAXX KINOMEscan)
The conditions noted are these: kinase TIE1; for remaining activity at 1 µM: read-out: TIE1 (% of control at 1 µM).

The target in experiment [5] is T5, panel of 442 kinases (Homo sapiens, UniProt P50750).
T5 construct: purchased Ambit Biosciences (scanMAXX KINOMEscan)
The settings on record: CDK9; for remaining activity at 1 µM: read-out: % of control at 1 µM.

Experiment [6] addresses T6, panel of 442 kinases (Homo sapiens, UniProt Q02779).
T6 construct: purchased Ambit Biosciences (scanMAXX KINOMEscan)
The conditions noted are these: kinase MLK2; for remaining activity at 1 µM: read-out: % of control at 1 µM.

The target in experiment [7] is T7, panel of 442 kinases (Homo sapiens, UniProt Q13554).
T7 construct: purchased Ambit Biosciences (scanMAXX KINOMEscan)
The conditions noted are these: CAMK2B; for remaining activity at 1 µM: read-out: % of control at 1 µM.

Experiment [8] addresses T8, panel of 442 kinases (Homo sapiens, UniProt Q6P3R8).
T8 construct: purchased Ambit Biosciences (scanMAXX KINOMEscan)
T8 sequence (Q6P3R8 1-708): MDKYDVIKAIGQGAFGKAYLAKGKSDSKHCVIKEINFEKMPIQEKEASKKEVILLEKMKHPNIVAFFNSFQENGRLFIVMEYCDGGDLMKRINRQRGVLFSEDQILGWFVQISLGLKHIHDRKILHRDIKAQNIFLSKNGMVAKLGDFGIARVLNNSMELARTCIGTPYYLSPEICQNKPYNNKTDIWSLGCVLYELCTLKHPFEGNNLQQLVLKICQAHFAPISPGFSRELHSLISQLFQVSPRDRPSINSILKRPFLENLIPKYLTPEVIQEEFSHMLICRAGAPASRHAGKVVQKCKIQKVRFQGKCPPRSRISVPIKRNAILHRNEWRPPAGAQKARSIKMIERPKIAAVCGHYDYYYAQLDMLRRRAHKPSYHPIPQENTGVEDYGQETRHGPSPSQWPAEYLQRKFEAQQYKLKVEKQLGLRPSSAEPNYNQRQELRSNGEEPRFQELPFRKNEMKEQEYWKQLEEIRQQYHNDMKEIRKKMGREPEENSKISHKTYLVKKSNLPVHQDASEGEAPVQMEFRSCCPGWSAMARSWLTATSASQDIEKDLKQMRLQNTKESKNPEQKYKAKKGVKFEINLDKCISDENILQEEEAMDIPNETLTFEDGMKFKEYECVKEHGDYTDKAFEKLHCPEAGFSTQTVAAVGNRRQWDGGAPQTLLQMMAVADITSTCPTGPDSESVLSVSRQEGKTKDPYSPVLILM
The conditions noted are these: kinase NEK5; for remaining activity at 1 µM: read-out: % of control at 1 µM.

Experiment [9] concerns the target T9, panel of 442 kinases (Homo sapiens, UniProt Q86V86).
T9 construct: purchased Ambit Biosciences (scanMAXX KINOMEscan)
The settings on record: kinase PIM3; for remaining activity at 1 µM: read-out: % of control at 1 µM.

Experiment [10] concerns the target T10, panel of 442 kinases (Homo sapiens, UniProt Q8IW41).
T10 construct: purchased Ambit Biosciences (scanMAXX KINOMEscan)
T10 sequence (Q8IW41 1-473): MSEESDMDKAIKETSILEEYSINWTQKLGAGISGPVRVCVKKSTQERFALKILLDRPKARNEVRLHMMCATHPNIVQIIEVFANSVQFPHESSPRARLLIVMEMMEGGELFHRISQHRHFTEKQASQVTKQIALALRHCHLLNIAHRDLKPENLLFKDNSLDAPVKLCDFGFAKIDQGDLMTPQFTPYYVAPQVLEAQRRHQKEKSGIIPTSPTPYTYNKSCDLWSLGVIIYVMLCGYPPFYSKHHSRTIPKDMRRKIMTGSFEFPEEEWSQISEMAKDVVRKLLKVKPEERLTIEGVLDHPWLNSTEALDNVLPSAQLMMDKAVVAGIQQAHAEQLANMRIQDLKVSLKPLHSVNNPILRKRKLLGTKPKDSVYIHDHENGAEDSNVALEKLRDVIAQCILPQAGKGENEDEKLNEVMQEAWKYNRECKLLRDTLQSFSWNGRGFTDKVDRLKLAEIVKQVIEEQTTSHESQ
The settings on record: kinase MAPKAPK5; for remaining activity at 1 µM: read-out: % of control at 1 µM.

Experiment [11] addresses T11, panel of 442 kinases (Homo sapiens, UniProt Q8N568).
T11 construct: purchased Ambit Biosciences (scanMAXX KINOMEscan)
The conditions noted are these: DCAMKL2; for remaining activity at 1 µM: read-out: % of control at 1 µM.

The target in experiment [12] is T12, panel of 442 kinases (Homo sapiens, UniProt Q99759).
T12 construct: purchased Ambit Biosciences (scanMAXX KINOMEscan)
T12 sequence (Q99759 1-626): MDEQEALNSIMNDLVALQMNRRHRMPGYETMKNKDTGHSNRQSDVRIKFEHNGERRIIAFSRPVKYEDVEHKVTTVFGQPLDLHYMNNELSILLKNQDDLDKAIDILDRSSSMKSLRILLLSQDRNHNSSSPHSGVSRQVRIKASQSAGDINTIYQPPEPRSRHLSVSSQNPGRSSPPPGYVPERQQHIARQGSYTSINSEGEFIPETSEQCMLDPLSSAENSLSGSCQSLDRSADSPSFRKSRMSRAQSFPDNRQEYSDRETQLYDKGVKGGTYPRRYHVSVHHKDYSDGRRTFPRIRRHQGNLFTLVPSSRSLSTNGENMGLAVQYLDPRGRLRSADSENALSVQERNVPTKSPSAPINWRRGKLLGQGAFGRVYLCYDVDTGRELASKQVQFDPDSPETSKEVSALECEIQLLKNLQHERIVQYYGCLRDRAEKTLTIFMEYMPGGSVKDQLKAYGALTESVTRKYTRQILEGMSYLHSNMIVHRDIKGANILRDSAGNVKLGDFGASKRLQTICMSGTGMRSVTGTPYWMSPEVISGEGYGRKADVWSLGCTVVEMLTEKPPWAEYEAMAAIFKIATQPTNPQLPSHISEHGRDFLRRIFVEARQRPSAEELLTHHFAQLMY
The settings on record: kinase MAP3K3; for remaining activity at 1 µM: read-out: % of control at 1 µM.

In experiment [13] the target is T13, panel of 442 kinases (Homo sapiens, UniProt Q9BQI3).
T13 construct: purchased Ambit Biosciences (scanMAXX KINOMEscan)
The conditions noted are these: EIF2AK1; for remaining activity at 1 µM: read-out: % of control at 1 µM.

Where [14] appears, read: 10 µM, read-out: % of control at 10 µM.

T4 sequence (P35590 22-1138): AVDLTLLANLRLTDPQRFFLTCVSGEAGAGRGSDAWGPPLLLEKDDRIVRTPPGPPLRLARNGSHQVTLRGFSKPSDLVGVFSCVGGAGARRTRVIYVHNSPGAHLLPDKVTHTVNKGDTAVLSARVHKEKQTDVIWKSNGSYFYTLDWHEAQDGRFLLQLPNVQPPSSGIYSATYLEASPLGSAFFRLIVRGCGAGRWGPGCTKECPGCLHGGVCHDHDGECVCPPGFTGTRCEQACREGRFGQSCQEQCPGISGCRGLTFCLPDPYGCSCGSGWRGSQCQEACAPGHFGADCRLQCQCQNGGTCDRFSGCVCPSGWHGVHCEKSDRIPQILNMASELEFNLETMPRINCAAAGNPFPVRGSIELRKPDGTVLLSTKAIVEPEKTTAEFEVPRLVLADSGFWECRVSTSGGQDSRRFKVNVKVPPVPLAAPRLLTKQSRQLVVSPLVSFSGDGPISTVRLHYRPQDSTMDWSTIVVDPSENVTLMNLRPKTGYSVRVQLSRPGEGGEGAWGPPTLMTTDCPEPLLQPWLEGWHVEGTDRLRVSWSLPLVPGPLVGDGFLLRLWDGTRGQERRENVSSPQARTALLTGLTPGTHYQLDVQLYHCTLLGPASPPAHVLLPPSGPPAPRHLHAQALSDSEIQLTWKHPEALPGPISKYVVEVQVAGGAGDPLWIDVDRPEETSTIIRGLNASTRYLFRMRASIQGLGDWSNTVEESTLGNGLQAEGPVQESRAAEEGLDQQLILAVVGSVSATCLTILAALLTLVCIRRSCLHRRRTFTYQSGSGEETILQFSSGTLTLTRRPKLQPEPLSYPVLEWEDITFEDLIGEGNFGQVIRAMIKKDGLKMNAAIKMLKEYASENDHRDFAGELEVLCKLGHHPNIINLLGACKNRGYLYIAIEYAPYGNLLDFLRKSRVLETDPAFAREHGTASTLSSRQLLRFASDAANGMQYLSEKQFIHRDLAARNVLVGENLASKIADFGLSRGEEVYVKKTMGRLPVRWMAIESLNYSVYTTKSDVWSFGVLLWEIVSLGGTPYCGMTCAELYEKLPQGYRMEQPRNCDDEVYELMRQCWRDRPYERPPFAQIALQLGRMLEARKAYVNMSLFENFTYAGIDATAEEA
T5 sequence (P50750 whole entry): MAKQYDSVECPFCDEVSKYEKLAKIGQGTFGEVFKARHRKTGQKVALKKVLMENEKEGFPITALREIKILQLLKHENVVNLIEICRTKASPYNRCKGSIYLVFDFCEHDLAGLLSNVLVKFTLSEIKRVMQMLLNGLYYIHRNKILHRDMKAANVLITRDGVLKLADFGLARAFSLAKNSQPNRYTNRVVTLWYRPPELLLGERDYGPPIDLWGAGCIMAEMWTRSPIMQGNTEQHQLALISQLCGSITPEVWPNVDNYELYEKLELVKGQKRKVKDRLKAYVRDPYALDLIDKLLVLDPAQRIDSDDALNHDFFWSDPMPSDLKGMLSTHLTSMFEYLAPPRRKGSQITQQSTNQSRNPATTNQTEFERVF
T1 sequence (O75116 whole entry): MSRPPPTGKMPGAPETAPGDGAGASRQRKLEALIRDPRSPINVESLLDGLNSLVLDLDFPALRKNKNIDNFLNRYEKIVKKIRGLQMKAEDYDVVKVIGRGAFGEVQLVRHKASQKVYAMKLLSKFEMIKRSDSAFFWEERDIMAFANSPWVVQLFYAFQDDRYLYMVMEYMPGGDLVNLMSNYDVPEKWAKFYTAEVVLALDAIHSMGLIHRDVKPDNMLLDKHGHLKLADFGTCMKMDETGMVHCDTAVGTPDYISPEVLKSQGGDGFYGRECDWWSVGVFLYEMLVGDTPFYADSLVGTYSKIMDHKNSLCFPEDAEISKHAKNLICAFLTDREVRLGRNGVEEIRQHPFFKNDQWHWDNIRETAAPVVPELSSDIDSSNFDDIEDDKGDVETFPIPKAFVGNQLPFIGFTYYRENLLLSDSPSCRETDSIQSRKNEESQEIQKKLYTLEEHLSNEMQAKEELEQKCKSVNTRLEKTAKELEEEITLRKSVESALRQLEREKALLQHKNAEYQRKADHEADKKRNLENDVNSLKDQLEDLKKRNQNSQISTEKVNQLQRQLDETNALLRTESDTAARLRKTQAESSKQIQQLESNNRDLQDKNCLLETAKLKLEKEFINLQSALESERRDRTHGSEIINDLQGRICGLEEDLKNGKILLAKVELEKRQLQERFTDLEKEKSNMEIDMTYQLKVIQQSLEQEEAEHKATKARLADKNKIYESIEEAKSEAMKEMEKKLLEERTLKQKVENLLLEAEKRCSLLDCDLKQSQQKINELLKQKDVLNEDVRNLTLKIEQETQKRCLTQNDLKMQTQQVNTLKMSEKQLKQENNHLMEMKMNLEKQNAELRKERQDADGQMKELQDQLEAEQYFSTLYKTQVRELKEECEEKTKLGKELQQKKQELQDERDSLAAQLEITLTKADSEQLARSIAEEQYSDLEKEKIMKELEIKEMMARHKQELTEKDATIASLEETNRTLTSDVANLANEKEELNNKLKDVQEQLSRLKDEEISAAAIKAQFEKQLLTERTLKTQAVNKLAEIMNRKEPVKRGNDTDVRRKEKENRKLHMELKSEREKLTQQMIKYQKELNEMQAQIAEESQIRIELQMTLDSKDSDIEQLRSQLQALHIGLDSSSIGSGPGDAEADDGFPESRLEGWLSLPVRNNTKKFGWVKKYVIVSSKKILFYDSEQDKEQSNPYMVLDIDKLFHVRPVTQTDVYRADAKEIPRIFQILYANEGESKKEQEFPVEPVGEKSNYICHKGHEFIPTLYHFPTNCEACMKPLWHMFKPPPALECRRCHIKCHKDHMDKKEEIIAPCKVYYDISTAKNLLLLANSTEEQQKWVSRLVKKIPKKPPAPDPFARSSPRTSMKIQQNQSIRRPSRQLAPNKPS
T6 sequence (Q02779 whole entry): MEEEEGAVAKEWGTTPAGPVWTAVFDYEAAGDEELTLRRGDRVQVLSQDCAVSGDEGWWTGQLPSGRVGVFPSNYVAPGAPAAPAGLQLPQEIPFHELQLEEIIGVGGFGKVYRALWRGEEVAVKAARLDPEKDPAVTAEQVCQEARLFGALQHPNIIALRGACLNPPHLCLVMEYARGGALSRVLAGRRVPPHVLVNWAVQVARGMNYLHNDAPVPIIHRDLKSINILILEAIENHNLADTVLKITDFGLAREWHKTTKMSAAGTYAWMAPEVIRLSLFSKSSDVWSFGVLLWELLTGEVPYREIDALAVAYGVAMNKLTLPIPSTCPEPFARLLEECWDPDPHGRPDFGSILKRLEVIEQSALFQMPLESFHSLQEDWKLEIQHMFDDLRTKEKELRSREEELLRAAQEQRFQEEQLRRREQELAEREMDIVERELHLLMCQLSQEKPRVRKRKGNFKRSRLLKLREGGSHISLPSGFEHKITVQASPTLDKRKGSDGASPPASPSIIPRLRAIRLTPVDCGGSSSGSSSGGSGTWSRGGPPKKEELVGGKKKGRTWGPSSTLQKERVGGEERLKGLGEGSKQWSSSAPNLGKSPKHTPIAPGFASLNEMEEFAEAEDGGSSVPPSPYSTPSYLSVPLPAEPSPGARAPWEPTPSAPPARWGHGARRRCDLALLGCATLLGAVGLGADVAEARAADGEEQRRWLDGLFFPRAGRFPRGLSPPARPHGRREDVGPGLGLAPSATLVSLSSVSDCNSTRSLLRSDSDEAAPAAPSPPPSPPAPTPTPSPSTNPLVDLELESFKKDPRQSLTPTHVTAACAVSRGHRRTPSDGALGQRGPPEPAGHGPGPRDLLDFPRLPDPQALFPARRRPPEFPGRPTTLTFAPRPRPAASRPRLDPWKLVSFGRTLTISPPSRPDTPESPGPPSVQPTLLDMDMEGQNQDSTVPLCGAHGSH
T7 sequence (Q13554 whole entry): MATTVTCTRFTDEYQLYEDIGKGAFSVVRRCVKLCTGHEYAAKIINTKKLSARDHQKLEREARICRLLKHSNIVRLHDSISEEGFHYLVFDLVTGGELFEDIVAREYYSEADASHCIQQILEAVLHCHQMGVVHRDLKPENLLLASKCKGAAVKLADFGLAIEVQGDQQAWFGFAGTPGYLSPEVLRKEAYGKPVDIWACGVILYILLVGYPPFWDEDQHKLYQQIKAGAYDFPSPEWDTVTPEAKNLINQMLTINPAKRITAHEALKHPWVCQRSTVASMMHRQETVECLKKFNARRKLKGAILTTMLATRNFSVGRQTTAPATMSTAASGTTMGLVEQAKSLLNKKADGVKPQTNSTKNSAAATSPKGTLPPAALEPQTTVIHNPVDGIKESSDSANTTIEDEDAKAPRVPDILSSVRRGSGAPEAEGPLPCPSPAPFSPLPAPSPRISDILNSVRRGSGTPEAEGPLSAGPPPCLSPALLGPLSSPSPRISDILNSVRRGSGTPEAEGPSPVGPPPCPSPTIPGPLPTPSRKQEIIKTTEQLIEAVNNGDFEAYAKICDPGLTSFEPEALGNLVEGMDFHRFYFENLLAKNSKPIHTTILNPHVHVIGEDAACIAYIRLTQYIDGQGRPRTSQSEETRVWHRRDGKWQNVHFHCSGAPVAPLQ

As for `Nc1cc(C(F)(F)F)c(-c2cc(N3CCOCC3)nc(N3CCOCC3)n2)cn1` [Buparlisib], the remaining activity at 1 µM is 100% at panel of 442 kinases [1]; 97% on panel of 442 kinases [2]; 100% at panel of 442 kinases [3]; 96% at panel of 442 kinases [4]; 85% at panel of 442 kinases [5]; 100% at panel of 442 kinases [6]. For the same compound, the remaining activity at 1 µM was 80% on panel of 442 kinases [7]; 100% at panel of 442 kinases [8]; 100% at panel of 442 kinases [9]; 100% on panel of 442 kinases [10]; 100% on panel of 442 kinases [11]; 98% at panel of 442 kinases [12]. The remaining activity at 1 µM at panel of 442 kinases [13] worked out at 92%. For the same compound, the remaining activity at 10 µM on panel of 442 kinases [1] (10 µM, read-out: ROCK2 (% of control at 10 µM)) worked out at 89%; on panel of 442 kinases [2] (setting [14]), 100%; at panel of 442 kinases [3] (setting [14]) it was 100%; at panel of 442 kinases [4] (10 µM, read-out: TIE1 (% of control at 10 µM)) it was 100%; at panel of 442 kinases [5] (setting [14]) it was 85%; at panel of 442 kinases [6] (setting [14]), 100%. The remaining activity at 10 µM on panel of 442 kinases [7] (setting [14]) was 79%; on panel of 442 kinases [8] (setting [14]) it was 88%; at panel of 442 kinases [9] (setting [14]) it was 93%; at panel of 442 kinases [10] (setting [14]), 100%; at panel of 442 kinases [11] (setting [14]) it was 100%; at panel of 442 kinases [12] (setting [14]) it was 100%. For the same compound, on panel of 442 kinases [13] (setting [14]), the remaining activity at 10 µM stood at 100%.
Regarding `Cn1c(=O)n(-c2ccc(C(C)(C)C#N)cc2)c2c3cc(-c4cnc5ccccc5c4)ccc3ncc21` [Dactolisib, 2-methyl-2-[4-(3-methyl-2-oxo-8-quinolin-3-yl-2,3-dihydroimidazo[4,5-c]quinolin-1-yl)-phenyl] propionitrile], the remaining activity at 1 µM at panel of 442 kinases [1] was determined as 60%; at panel of 442 kinases [2] it was 91%; at panel of 442 kinases [3] it was 100%; at panel of 442 kinases [4] it was 100%; at panel of 442 kinases [5], 91%; on panel of 442 kinases [6], 100%. Further, the remaining activity at 1 µM at panel of 442 kinases [7] is 87%; at panel of 442 kinases [8], 62%; on panel of 442 kinases [9], 100%; at panel of 442 kinases [10], 100%; at panel of 442 kinases [11] it was 94%; on panel of 442 kinases [12] it was 81%. Also, the remaining activity at 1 µM at panel of 442 kinases [13] is 94%.
In the case of `COc1ncc(-c2ccc3nccc(-c4ccnnc4)c3c2)cc1NS(=O)(=O)c1ccc(F)cc1F` [Omipalisib], the remaining activity at 1 µM at panel of 442 kinases [1] is 89%; at panel of 442 kinases [2], 100%; at panel of 442 kinases [3] it was 87%; on panel of 442 kinases [4] it was 100%; at panel of 442 kinases [5] it was 100%; at panel of 442 kinases [6], 98%. Also, the remaining activity at 1 µM at panel of 442 kinases [7] amounted to 100%; on panel of 442 kinases [8], 100%; at panel of 442 kinases [9] it was 86%; on panel of 442 kinases [10], 100%; at panel of 442 kinases [11] it was 100%; on panel of 442 kinases [12] it was 100%. For the same compound, the remaining activity at 1 µM on panel of 442 kinases [13] stood at 100%.
`FC(F)c1nc2ccccc2n1-c1nc(N2CCOCC2)nc(N2CCOCC2)n1` [ZSTK474, 2-(difluoromethyl)-1-[4,6-di(4-morpholinyl)-1,3,5-triazin-2-yl]-1H-benzimidazole]: the remaining activity at 1 µM turned out to be 86% at panel of 442 kinases [1]; 82% on panel of 442 kinases [2]; 100% at panel of 442 kinases [3]; 88% at panel of 442 kinases [4]; 100% on panel of 442 kinases [5]; 100% at panel of 442 kinases [6]. The remaining activity at 1 µM was determined as 100% on panel of 442 kinases [7]; 89% on panel of 442 kinases [8]; 95% at panel of 442 kinases [9]; 100% on panel of 442 kinases [10]; 100% at panel of 442 kinases [11]; 74% at panel of 442 kinases [12]. The remaining activity at 1 µM at panel of 442 kinases [13] amounted to 77%.
